Measured values reported in ChEMBL document CHEMBL6092131, “Synthesis, SAR, and application of JQ1 analogs as PROTACs for cancer therapy” (Bioorg Med Chem, 2024).

Key:
cells = conditions: Homo sapiens, Triple-negative breast cancer cell
Description: Antiproliferative activity against human Triple-negative breast cancer cell

BT-549 = assay: Antiproliferative activity against human BT-549 cells assessed as reduction in cell viability; type: functional, cell-based
[1] = molecular target: Protein cereblon/CREB-binding protein (Homo sapiens, UniProt Q92793+Q96SW2); assay: PROTAC activity at CBP/CRBN in human VCaP cells assessed as protein degradation incubated for 24 hrs by Western blot analysis; type: cell-based
Chain of Protein cereblon/CREB-binding protein (Q92793 whole entry): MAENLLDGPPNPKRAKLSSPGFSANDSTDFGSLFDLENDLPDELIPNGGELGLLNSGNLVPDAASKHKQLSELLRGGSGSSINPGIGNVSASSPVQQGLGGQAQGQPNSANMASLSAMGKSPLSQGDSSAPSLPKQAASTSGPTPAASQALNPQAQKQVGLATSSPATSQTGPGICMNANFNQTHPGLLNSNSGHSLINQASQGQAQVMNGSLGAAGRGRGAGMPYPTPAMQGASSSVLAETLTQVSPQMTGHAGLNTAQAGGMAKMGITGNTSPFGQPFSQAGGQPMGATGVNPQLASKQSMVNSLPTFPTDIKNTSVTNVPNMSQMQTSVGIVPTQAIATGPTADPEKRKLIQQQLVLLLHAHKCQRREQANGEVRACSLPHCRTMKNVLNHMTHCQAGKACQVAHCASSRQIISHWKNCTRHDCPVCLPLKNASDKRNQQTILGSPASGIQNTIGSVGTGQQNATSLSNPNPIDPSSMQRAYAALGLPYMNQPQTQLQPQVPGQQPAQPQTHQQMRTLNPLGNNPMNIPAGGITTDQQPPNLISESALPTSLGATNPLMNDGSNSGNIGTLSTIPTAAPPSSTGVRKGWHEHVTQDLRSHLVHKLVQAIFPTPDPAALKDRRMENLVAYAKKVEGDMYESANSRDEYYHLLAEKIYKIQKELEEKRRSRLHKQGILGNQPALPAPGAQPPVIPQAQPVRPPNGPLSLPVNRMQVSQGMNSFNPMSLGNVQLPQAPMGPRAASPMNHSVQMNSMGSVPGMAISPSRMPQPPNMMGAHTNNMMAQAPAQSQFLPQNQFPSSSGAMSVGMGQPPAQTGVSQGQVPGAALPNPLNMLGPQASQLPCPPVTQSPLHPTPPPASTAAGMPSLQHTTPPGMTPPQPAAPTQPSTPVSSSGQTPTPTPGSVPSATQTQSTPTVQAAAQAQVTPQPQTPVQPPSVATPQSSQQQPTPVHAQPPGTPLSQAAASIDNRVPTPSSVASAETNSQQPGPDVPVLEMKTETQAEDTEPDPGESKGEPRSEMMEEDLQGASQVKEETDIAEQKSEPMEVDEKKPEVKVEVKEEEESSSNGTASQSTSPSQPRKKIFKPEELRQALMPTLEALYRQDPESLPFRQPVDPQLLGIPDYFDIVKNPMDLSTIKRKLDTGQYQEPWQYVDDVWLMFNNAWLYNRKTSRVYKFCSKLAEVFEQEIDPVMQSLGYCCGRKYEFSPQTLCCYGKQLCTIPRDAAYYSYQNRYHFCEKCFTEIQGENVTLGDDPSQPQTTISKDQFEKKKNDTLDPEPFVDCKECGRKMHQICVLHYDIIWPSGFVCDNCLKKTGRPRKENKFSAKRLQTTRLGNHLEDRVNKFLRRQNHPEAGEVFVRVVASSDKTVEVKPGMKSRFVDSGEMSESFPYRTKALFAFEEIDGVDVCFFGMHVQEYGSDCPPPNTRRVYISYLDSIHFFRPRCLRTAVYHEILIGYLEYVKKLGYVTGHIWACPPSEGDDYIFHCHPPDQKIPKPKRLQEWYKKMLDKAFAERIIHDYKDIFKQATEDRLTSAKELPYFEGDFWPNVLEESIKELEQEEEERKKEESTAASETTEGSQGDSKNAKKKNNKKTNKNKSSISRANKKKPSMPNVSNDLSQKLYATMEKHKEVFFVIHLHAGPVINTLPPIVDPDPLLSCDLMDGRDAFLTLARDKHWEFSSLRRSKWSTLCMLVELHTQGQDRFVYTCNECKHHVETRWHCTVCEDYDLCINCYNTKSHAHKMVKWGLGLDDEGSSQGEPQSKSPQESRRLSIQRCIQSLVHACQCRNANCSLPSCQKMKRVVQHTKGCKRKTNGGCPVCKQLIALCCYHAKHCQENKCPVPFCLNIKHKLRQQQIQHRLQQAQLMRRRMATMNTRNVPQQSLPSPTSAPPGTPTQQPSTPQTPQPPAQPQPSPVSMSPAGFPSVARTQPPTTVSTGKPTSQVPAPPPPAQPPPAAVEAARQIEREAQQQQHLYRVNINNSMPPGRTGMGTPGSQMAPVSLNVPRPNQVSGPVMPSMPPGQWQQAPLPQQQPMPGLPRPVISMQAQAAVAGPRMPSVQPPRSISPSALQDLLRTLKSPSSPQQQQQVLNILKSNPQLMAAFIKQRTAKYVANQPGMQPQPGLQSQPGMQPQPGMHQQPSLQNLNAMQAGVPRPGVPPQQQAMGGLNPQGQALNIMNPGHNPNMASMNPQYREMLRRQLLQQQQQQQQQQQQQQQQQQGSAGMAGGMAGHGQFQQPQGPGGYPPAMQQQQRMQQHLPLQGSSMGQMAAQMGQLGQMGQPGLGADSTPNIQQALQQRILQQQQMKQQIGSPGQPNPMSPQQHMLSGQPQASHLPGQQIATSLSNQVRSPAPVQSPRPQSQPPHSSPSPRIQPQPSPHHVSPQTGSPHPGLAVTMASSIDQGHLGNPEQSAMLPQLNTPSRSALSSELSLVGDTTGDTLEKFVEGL
Chain of Protein cereblon/CREB-binding protein (Q96SW2 whole entry): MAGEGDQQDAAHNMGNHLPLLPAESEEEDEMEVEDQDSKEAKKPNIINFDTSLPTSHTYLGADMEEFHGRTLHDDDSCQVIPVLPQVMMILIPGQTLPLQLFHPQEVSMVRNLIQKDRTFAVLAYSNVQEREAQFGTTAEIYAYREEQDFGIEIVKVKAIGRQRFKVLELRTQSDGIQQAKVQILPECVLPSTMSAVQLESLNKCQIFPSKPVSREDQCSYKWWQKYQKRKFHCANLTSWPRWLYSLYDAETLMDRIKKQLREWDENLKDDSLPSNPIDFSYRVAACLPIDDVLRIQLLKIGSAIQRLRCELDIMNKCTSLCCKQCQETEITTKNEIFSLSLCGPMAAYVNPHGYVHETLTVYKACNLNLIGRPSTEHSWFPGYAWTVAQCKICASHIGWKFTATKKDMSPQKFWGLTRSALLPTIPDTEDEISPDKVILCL

[2] = molecular target: Bromodomain-containing protein 4 (Homo sapiens, UniProt O60885); assay: Binding affinity to BRD4 BD2 (unknown origin) assessed as dissociation constant by SPR assay
[3] = Cytotoxicity against human HAP1 cells assessed as reduction in cell viability measured for 24 hrs by SRB assay; type: functional, cell-based; conditions: HAP1, 24 h
MDA-MB-231 = assay: Antiproliferative activity against human MDA-MB-231 cells assessed as reduction in cell viability incubated for 72 hrs by MTT assay; type: functional, cell-based; conditions: MDA-MB-231, 72 h
MV4-11 = assay: Cytotoxicity against human MV4-11 cells assessed as reduction in cell viability incubated for 72 hrs by cell titer glo assay; type: functional, cell-based; conditions: MV4-11, 72 h
[4] = molecular target: von Hippel-Lindau disease tumor suppressor/Bromodomain-containing protein 4 (Homo sapiens, UniProt O60885+P40337); assay: PROTAC activity at VHL/BRD4 in human HeLa cells assessed as protein degradation of BRD4 incubated for 24 hrs by Western blot analysis; type: cell-based
Chain of von Hippel-Lindau disease tumor suppressor/Bromodomain-containing protein 4 (P40337 whole entry, looked up, other chains not shown): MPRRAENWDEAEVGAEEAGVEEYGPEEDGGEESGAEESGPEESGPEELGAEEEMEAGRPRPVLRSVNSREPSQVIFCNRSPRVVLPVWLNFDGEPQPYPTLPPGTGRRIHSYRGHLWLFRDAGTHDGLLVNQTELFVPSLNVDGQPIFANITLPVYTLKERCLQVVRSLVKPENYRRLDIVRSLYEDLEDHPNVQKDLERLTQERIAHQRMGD

[5] = molecular target: T1, Protein cereblon/Bromodomain-containing protein 4 (Homo sapiens, UniProt O60885+Q96SW2); assay: PROTAC activity at CRBN/BRD4 in human CA46 cells assessed as protein degradation incubated for 6 hrs by Western blot analysis; type: cell-based
T1 sequence (Q96SW2 whole entry, looked up, other chains not shown): as the sequence (Q96SW2 whole entry) above

[6] = molecular target: T1, Protein cereblon/Bromodomain-containing protein 4; assay: PROTAC activity at CRBN/BRD4 in human NAMALVA cells assessed as protein degradation incubated for 6 hrs by Western blot analysis; type: cell-based
LNCaP = assay: Antiproliferative activity against human LNCaP cells assessed as inhibition of cell viability incubated for 48 hrs by CellTiter-Glo assay; type: functional, cell-based

Cc1sc2c(c1C)C(c1ccc(Cl)cc1)=N[C@@H](CC(=O)OC(C)(C)C)c1nnc(C)n1-2 showed an IC50 (cells) of 9900 nM and an IC50 (BT-549) of 5200 nM.

For Cc1ncsc1-c1ccc([C@H](C)NC(=O)[C@@H]2C[C@@H](O)CN2C(=O)[C@@H](NC(=O)COCCCOCCNC(=O)C[C@@H]2N=C(c3ccc(Cl)cc3)c3c(sc(C)c3C)-n3c(C)nnc32)C(C)(C)C)cc1, the DC50 [1] was 5 nM.

CC(=O)N[C@H](C(=O)N1C[C@H](O)C[C@H]1C(=O)NCc1ccc(-c2scnc2C)cc1)C(C)(C)SCCCCCCNC(=O)C[C@@H]1N=C(c2ccc(Cl)cc2)c2c(sc(C)c2C)-n2c(C)nnc21 gave a Kd [2] of 4.4 nM.

Compound Cc1sc2c(c1C)C(c1ccc(Cl)cc1)=N[C@@H](CC(=O)NCCCCOc1ccc(C3CC(c4ccc(Br)cc4)=NN3C(=O)CCl)cc1)c1nnc(C)n1-2 (stereo partly specified) has an IC50 [3] of 470 nM.

For Cc1sc2c(c1C)C(c1ccc(Cl)cc1)=N[C@@H](CC(=O)NCCCCOc1ccc(Oc3ccc(N(Cc4ccccc4)C(=O)CCl)cc3)cc1)c1nnc(C)n1-2, the IC50 (MDA-MB-231) was 540 nM.

Compound Cc1ncsc1-c1ccc2c(c1)OCCOCCOC[C@@H](NC(=O)C[C@@H]1N=C(c3ccc(Cl)cc3)c3c(sc(C)c3C)-n3c(C)nnc31)COCCOCCOCC(=O)N[C@@H](C(C)(C)C)C(=O)N1C[C@H](O)C[C@H]1C(=O)NC2 has an IC50 (MV4-11) of 300 nM and a DC50 [4] of 640 nM.

In the case of Cc1sc2c(c1C)C(c1ccc(Cl)cc1)=N[C@@H](CC(=O)Nc1ccc(OCCOCCOCCOCCCc3cccc4c3C(=O)N(C3CCC(=O)NC3=O)C4=O)cc1)c1nnc(C)n1-2 (stereo partly specified), the DC50 [5] is reported as < 1 nM and the DC50 [6] is reported as < 1 nM.

For CN[C@@H](C)C(=O)N[C@H](C(=O)N1CCC[C@H]1c1nc(C(=O)c2cccc(OCCOCCOCCOCCNC(=O)C[C@@H]3N=C(c4ccc(Cl)cc4)c4c(sc(C)c4C)-n4c(C)nnc43)c2)cs1)C1CCCCC1, the IC50 (LNCaP) was 77 nM.
